Measurements published in ChEMBL document CHEMBL4627395, “Cytotoxic Heptaketides from the Endolichenic Fungus Ulospora bilgramii” (J Nat Prod, 2020).
pIC50: −log10 of the molar value. Where a name gives a salt, the structure may show the parent alone. Active and inactive are the calls of the source. No cut-off for these calls is given here.

How the values were obtained:
[1] = tested on: KB; assay: Cytotoxicity against human KB cells incubated for 48 hrs by MTT assay; assay type: functional, cell-based
[2] = tested on: MCF7; assay: Cytotoxicity against human MCF7 cells incubated for 48 hrs by MTT assay; assay type: functional, cell-based; settings: MCF7, 48 h
[3] = tested on: A549; assay: Cytotoxicity against human A549 cells incubated for 48 hrs by MTT assay; assay type: functional, cell-based; settings: A549, 48 h
[4] = tested on: A549; assay: Induction of apoptosis in human A549 cells assessed as necrotic cells at 2.5 uM after 24 hrs by Annexin-V-FITC/propidium iodide staining based flow cytometric method (reference value: 1.12%); assay type: functional
[5] = tested on: A549; assay: Induction of apoptosis in human A549 cells assessed as early apoptotic cells at 1.25 uM after 24 hrs by Annexin-V-FITC/propidium iodide staining based flow cytometric method (reference value: 0.56%); assay type: functional
[6] = tested on: A549; assay: Induction of apoptosis in human A549 cells assessed as late apoptotic cells at 5 uM after 24 hrs by Annexin-V-FITC/propidium iodide staining based flow cytometric method (reference value: 1.40%); assay type: functional
[7] = tested on: A549; assay: Induction of apoptosis in human A549 cells assessed as necrotic cells at 1.25 uM after 24 hrs by Annexin-V-FITC/propidium iodide staining based flow cytometric method (reference value: 1.12%); assay type: functional
[8] = tested on: A549; assay: Induction of apoptosis in human A549 cells assessed as early apoptotic cells at 2.5 uM after 24 hrs by Annexin-V-FITC/propidium iodide staining based flow cytometric method (reference value: 0.56%); assay type: functional
[9] = tested on: A549; assay: Induction of apoptosis in human A549 cells after 24 hrs by Annexin-V-FITC/propidium iodide staining based flow cytometric method; assay type: functional, cell-based
[10] = tested on: A549; assay: Induction of cell cycle arrest in human A549 cells assessed as accumulation at G0/G1 phase at 13.6 uM incubated for 24 hrs by flow cytometry (reference value: 55.79%); assay type: functional
[11] = tested on: A549; assay: Induction of cell cycle arrest in human A549 cells assessed as accumulation at G2/M phase at 2.5 uM incubated for 24 hrs by flow cytometry (reference value: 10.38%); assay type: functional
[12] = tested on: A549; assay: Induction of cell cycle arrest in human A549 cells assessed as accumulation at G2/M phase at 13.6 uM incubated for 24 hrs by flow cytometry (reference value: 10.38%); assay type: functional
[13] = tested on: A549; assay: Induction of cell cycle arrest in human A549 cells assessed as accumulation at G2/M phase at 5 uM incubated for 24 hrs by flow cytometry (reference value: 10.38%); assay type: functional
[14] = tested on: A549; assay: Induction of cell cycle arrest in human A549 cells assessed as accumulation at G0/G1 phase at 5 uM incubated for 24 hrs by flow cytometry (reference value: 55.79%); assay type: functional
[15] = tested on: A549; assay: Induction of ROS generation in human A549 cells assessed as increase in fluorescence intensity at 5 uM incubated for 24 hrs by DCFH-DA staining-based flow cytometric analysis relative to control; assay type: functional
[16] = tested on: A549; assay: induction of morphological changes in human A549 cells assessed as cell shrinkage at 1.25 to 5 uM incubated for 24 hrs by DAPI-staining based microscopic method; assay type: functional
[17] = tested on: A549; assay: Induction of cell cycle arrest in human A549 cells assessed as accumulation at S phase at 5 uM incubated for 24 hrs by flow cytometry (reference value: 33.65%); assay type: functional
[18] = tested on: A549; assay: Induction of apoptosis in human A549 cells assessed as early apoptotic cells at 5 uM after 24 hrs by Annexin-V-FITC/propidium iodide staining based flow cytometric method (reference value: 0.56%); assay type: functional
[19] = tested on: A549; assay: Induction of cell cycle arrest in human A549 cells assessed as accumulation at G0/G1 phase at 1.25 uM incubated for 24 hrs by flow cytometry (reference value: 55.79%); assay type: functional
[20] = tested on: A549; assay: Induction of cell cycle arrest in human A549 cells assessed as accumulation at S phase at 1.25 uM incubated for 24 hrs by flow cytometry (reference value: 33.65%); assay type: functional
[21] = tested on: A549; assay: induction of morphological changes in human A549 cells assessed as appearance of apoptotic bodies at 1.25 to 5 uM incubated for 24 hrs by DAPI-staining based microscopic method; assay type: functional, cell-based
[22] = tested on: A549; assay: Induction of cell cycle arrest in human A549 cells assessed as accumulation at G2/M phase at 1.25 uM incubated for 24 hrs by flow cytometry (reference value: 10.38%); assay type: functional
[23] = tested on: A549; assay: Induction of apoptosis in human A549 cells assessed as necrotic cells at 5 uM after 24 hrs by Annexin-V-FITC/propidium iodide staining based flow cytometric method (reference value: 1.12%); assay type: functional
[24] = tested on: A549; assay: Induction of apoptosis in human A549 cells assessed as necrotic cells at 13.6 uM after 24 hrs by Annexin-V-FITC/propidium iodide staining based flow cytometric method (reference value: 1.12%); assay type: functional
[25] = tested on: A549; assay: Induction of cell cycle arrest in human A549 cells assessed as accumulation at G0/G1 phase at 2.5 uM incubated for 24 hrs by flow cytometry (reference value: 55.79%); assay type: functional
[26] = tested on: A549; assay: Induction of DNA damage in human A549 cells assessed as gammaH2AX accumulation incubated for 24 hrs by DAPI staining based Immunofluorescence method; assay type: functional, cell-based
[27] = tested on: A549; assay: Induction of apoptosis in human A549 cells assessed as late apoptotic cells at 2.5 uM after 24 hrs by Annexin-V-FITC/propidium iodide staining based flow cytometric method (reference value: 1.40%); assay type: functional
[28] = tested on: A549; assay: Induction of apoptosis in human A549 cells assessed as late apoptotic cells at 13.6 uM after 24 hrs by Annexin-V-FITC/propidium iodide staining based flow cytometric method (reference value: 1.40%); assay type: functional
[29] = tested on: A549; assay: Induction of cell cycle arrest in human A549 cells assessed as accumulation at G0/G1 phase incubated for 24 hrs by flow cytometry; assay type: functional, cell-based
[30] = tested on: A549; assay: Induction of cell cycle arrest in human A549 cells assessed as accumulation at S phase at 2.5 uM incubated for 24 hrs by flow cytometry (reference value: 33.65%); assay type: functional
[31] = tested on: A549; assay: Induction of cell cycle arrest in human A549 cells assessed as accumulation at S phase at 13.6 uM incubated for 24 hrs by flow cytometry (reference value: 33.65%); assay type: functional
[32] = tested on: A549; assay: Induction of apoptosis in human A549 cells assessed as early apoptotic cells at 13.6 uM after 24 hrs by Annexin-V-FITC/propidium iodide staining based flow cytometric method (reference value: 0.56%); assay type: functional
[33] = target: DNA topoisomerase 2-alpha (Homo sapiens) (UniProt P11388); assay: Inhibition of human topoisomerase-2alpha expressed in baculovirus infected insect cells assessed as reduction in pBR322 DNA relaxation measured after 30 mins by ethidium bromide staining based agarose gel electrophoresis method relative to control
DNA topoisomerase 2-alpha (Homo sapiens), sequence (P11388 whole entry): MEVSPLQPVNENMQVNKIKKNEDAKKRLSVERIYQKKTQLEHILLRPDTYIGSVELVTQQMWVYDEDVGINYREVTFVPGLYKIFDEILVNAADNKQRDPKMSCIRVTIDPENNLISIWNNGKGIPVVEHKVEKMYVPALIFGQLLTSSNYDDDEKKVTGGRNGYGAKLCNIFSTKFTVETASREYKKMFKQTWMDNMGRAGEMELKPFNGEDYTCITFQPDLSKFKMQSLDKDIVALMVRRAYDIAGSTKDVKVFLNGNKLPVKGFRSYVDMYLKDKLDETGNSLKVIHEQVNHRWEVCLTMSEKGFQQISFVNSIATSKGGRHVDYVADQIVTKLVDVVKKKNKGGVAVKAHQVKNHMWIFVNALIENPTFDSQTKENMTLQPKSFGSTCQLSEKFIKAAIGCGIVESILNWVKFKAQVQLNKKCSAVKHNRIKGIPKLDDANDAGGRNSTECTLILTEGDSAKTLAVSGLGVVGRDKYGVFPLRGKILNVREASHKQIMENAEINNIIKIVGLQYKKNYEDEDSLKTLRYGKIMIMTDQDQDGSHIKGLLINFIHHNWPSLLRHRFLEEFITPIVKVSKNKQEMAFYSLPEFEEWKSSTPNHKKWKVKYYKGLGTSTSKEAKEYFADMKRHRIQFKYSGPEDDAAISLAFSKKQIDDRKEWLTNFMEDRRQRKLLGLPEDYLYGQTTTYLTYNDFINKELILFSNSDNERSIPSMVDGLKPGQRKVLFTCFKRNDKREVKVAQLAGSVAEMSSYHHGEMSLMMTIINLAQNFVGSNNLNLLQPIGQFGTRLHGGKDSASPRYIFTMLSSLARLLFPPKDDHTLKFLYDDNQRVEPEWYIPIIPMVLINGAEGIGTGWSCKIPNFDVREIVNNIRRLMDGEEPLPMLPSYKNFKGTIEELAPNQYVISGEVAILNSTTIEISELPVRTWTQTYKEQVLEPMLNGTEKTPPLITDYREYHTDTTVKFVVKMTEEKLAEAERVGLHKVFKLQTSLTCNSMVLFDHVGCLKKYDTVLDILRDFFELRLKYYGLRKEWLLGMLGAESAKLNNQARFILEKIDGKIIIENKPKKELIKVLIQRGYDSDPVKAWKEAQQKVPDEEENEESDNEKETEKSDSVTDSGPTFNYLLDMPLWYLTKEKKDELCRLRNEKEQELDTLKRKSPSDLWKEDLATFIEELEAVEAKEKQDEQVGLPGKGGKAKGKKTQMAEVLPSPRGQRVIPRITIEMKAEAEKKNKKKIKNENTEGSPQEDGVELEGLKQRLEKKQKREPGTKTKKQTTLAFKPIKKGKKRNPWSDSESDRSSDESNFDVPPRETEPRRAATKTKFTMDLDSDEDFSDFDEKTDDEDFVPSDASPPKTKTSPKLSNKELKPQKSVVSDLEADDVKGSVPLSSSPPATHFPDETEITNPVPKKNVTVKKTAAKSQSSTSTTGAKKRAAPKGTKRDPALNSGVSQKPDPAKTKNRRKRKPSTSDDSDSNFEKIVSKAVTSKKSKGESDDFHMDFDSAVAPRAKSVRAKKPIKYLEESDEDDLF

[34] = tested on: A549; assay: Induction of ROS generation in human A549 cells incubated for 24 hrs by DCFH-DA staining-based flow cytometric analysis relative to control; assay type: functional, cell-based
[35] = tested on: A549; assay: Induction of apoptosis in human A549 cells assessed as late apoptotic cells at 1.25 uM after 24 hrs by Annexin-V-FITC/propidium iodide staining based flow cytometric method (reference value: 1.40%); assay type: functional

COc1cc(O)c2c(c1)C(=O)C(CC(C)=O)=C(C)C2=O
pIC50 [1]: < 4.40
pIC50 [2]: < 4.40
pIC50 [3]: < 4.40

COc1cc(O)c2c(c1)[C@@H](O)[C@@H]1C[C@H](C)OC[C@H]1C2=O
pIC50 [1]: < 4.40
pIC50 [2]: < 4.40
pIC50 [3]: < 4.40

COc1cc(O)c2c(c1)[C@@H](O)[C@@H]1C[C@@H](C)OC[C@H]1C2=O
pIC50 [1]: < 4.40
pIC50 [2]: < 4.40
pIC50 [3]: < 4.40

COc1cc(C)c(Cc2c(C)cc(O)cc2OC)c(O)c1
pIC50 [1]: < 4.40
pIC50 [2]: < 4.40
pIC50 [3]: < 4.40

COc1cc(O)c2c(c1)[C@H](O)[C@@H]1C[C@H](C)OC[C@H]1C2=O
pIC50 [1]: < 4.40
pIC50 [2]: < 4.40
pIC50 [3]: < 4.40

COc1cc(O)c2c(c1)C(=O)C1=C(C2=O)[C@@](C)(OC)OCC1
pIC50 [1]: 4.78
pIC50 [2]: 4.94
pIC50 [3]: 4.55

COc1cc(O)c2c(c1)C(=O)C1=C(C2=O)[C@H](OC[C@@H]2C(=O)CC[C@H]2C)OC(C)=C1
Activity [4]: 1.3%
Activity [5]: 0.98%
Activity [6]: 10.75%
Activity [7]: 0.73%
pIC50 [1]: 5.52
Activity [8]: 0.87%
Activity [9]: Dose-dependent effect
Activity [10]: 30.93%
Activity [11]: 3.56%
pIC50 [2]: 5.89
Activity [12]: 44.81%
Activity [13]: 1.11%
Activity [14]: 69.15%
fold change (FC) [15]: 5
Activity [16]: Active
Activity [17]: 29.74%
Activity [18]: 1.8%
Activity [19]: 59.51%
Activity [20]: 33.31%
Activity [21]: Active
Activity [22]: 7.18%
Activity [23]: 7.75%
Activity [24]: 2.15%
Activity [25]: 66.37%
Activity [26]: Dose-dependent effect
Activity [27]: 2.69%
Activity [28]: 5.02%
Activity [29]: Dose-dependent effect
Activity [30]: 30.07%
Activity [31]: 24.26%
Activity [32]: 6.79%
inhibition [33]: Active
Activity [34]: Dose-dependent effect
Activity [35]: 1.14%
pIC50 [3]: 5.89

COc1cc(O)c2c(c1)C(=O)c1cc(C)ncc1C2=O
pIC50 [1]: < 4.40
pIC50 [2]: < 4.40
pIC50 [3]: < 4.40

COc1cc(O)c2c(c1)C(=O)C1=C(C2=O)[C@H](OC[C@@H]2C(=O)CC[C@@H]2C)OC(C)=C1
Activity [4]: 1.3%
Activity [5]: 0.98%
Activity [6]: 10.75%
Activity [7]: 0.73%
pIC50 [1]: 5.52
Activity [8]: 0.87%
Activity [9]: Dose-dependent effect
Activity [10]: 30.93%
Activity [11]: 3.56%
pIC50 [2]: 5.89
Activity [12]: 44.81%
Activity [13]: 1.11%
Activity [14]: 69.15%
fold change (FC) [15]: 5
Activity [16]: Active
Activity [17]: 29.74%
Activity [18]: 1.8%
Activity [19]: 59.51%
Activity [20]: 33.31%
Activity [21]: Active
Activity [22]: 7.18%
Activity [23]: 7.75%
Activity [24]: 2.15%
Activity [25]: 66.37%
Activity [26]: Dose-dependent effect
Activity [27]: 2.69%
Activity [28]: 5.02%
Activity [29]: Dose-dependent effect
Activity [30]: 30.07%
Activity [31]: 24.26%
Activity [32]: 6.79%
inhibition [33]: Active
Activity [34]: Dose-dependent effect
Activity [35]: 1.14%
pIC50 [3]: 5.89

COc1cccc2c1C(=O)c1c(O)c3c(c(O)c1C2=O)C[C@@](O)(C(=O)CO)C[C@@H]3O[C@H]1C[C@H](N)[C@H](O)[C@H](C)O1 [DOXORUBICIN HYDROCHLORIDE]
pIC50 [1]: 5.66
pIC50 [2]: 5.60
pIC50 [3]: 5.30

COc1cc(O)c2c(c1)[C@@H]1O[C@]3(C)C[C@@H]1[C@@H](CO3)C2=O
pIC50 [1]: < 4.40
pIC50 [2]: < 4.40
pIC50 [3]: < 4.40
